Key:
[1] = test system: intestinal stem cells; test: ChgA immunostaining of EEC differentiation from intestinal stem cells; type: cell-based, mouse; details: organoid culture (ENR) with Notch inhibitor DAPT (ENRD)
Description: “ChgA Immunostaining Assay” as used herein is an assay used to determine the fraction of cells in a cell population that express ChgA by an immunostaining method. In an example of a ChgA immunostaining assay, a cell culture medium in which a cell population has been treated is removed, and the sample is washed with PBS. Organoids or cell colonies cultured in Matrigel are fixed directly by adding 4% PFA and incubating for 20 mins at room temperature. The Matrigel is then mechanically disrupted, and the cells are transferred to BSA-coated Eppendorf tubes. Samples are washed with PBS, permeabilized with 0.25% Triton X-100 for 30 minutes, and stained with primary antibody against Chromogranin A (e.g. anti-chromogranin A, sc-13090, Santa Cruz) and appropriate secondary antibodies (e.g. Alexa Fluor conjugated secondary antibodies, such as Alexa Fluor 594 conjugated Donkey anti-Rabbit antibody, A-21207; Life Technologies). Images are acquired by confocal microscopy.
Differentiated cell colonies were collected by gently pipetting into a 1.5 ml protein Lobind Eppendorf tube. Cell culture medium was removed, and samples were washed with PBS. Organoids or cell colonies cultured in Matrigel were fixed by directly adding 4% PFA and incubating for 10-30 min at room temperature. Matrigel was then mechanically disrupted, and cells were transferred into BSA-coated Eppendorf tubes. […]

[2] = test system: gastrointestinal stem cells; test: Insulin / Nkx6.1 mRNA expression (qPCR), 3-stage conversion to insulin producing cells; type: cell-based, mouse; details: dose response
Text: “mRNA Insulin Expression Assay” refers to an assay used to determine the relative insulin mRNA expression level of a cell population. For example, the assay can determine the insulin mRNA level expressed in a cell population treated to increase the expression of insulin in the cells, as compared to an untreated population of cells. In an exemplary mRNA Insulin Expression Assay, the cells were collected and the RNA is extracted from the cells using an RNA extraction kit (such as RNeasy Mini kit, Qiagen). The insulin expression level is then assessed by Quantitative real-time PCR using a one-step qPCR kit (such as QuantiTech Probe PCR kit, Qiagen) and Ins1 or Ins2 primers and probes (such as the commercially available TaqMan probe for mouse Ins1 and Ins2, Life Technologies). The relative insulin mRNA expression can be determined relative to a baseline or other marker, such as Hprt mRNA expression level or other baseline marker.
(§1) Organoids or differentiated cells were harvested and RNA was extracted using RNeasy Micro Kit (Qiagen) according to the manufacturer's instruction. Quantitative real-time PCR was performed with QuantiTect Probe PCR kit (Qiagen) using commercially available primers and TaqMan probes (Life Technologies).
Based on the protocol to convert gastrointestinal stem cells into insulin producing cells, a 3-stage process was developed, specifically, Day 0-1 as Stage 1, Day 1-3 as Stage 2, Day 3-5 as Stage 3. After Stage 3, the cells turn on significant level of Insulin expression as indicated by Ins-EGFP expression and qPCR for Insulin mRNA expression. Optionally, the cells can be further cultured for 1-2 weeks, as Stage 4. For each stage, a set of specific combination of small molecules (and/or growth factors) were added. The objective was to optimize the reprogramming protocol to increase insulin expression, specifically Insulin mRNA expression for each stage, by screening and testing new small molecules (or growth factors).

[3] = test system: differentiated cell colonies; details: continuing culture of Islet-like Insulin expression cell colonies
[4] = test system: intestinal stem cells; test: mRNA expression (qPCR) of ChgA and other lineage markers in differentiated intestinal stem cells; type: cell-based, mouse
Text: “mRNA ChgA Expression Assay” refers to an assay used to determine the relative ChgA mRNA expression level in a cell population. For example, the assay can determine ChgA mRNA expression level of a differentiated cell population following treatment with agents being tested, as compared to an untested population of post-natal stem cells. In an example of an mRNA ChgA Expression Assay, the cells were collected and the RNA is extracted from the cells using an RNA extraction kit (such as RNeasy Mini kit, Qiagen). The ChgA expression level is then assessed by Quantitative real-time PCR using a one-step qPCR kit (such as QuantiTech Probe PCR kit, Qiagen) and ChgA primers and probes (such as commercially available Taqman probe for mouse ChgA, Life Technologies).
as §1
Cells were then cultured with EGF, Noggin, and DAPT (END), as well as small molecules. After 2-3 days of differentiation, the cells lysed and ChgA expression was measured by qRT-PCR.
Small molecules were further validated using a 24-well plate culture and the differentiation system. […] The expression of markers of secretory lineage cells including goblet cells (Muc2), enteroendocrine cells (ChgA), and Paneth cells (Lyz1) were measured.

[5] = test system: intestinal stem cells; test: Ngn3 mRNA expression during EEC differentiation; type: cell-based, mouse; details: 2 days, added after removal of R-spondin1
Description: “Ngn3 Assay” as used herein is an assay used to determine the extent of expression of Ngn3 in cells, such as cells subjected to a differentiation protocol. In an exemplary Ngn3 Assay, RNA is isolated from cells that have been cultured according to a differentiation protocol, and quantitative real-time PCR is performed using commercially available primers and probes (such as Taqman probes) to determine an extent of Ngn3 expression in the cells.
as §1
There has been prior speculation that Ngn3 positive secretory progenitors differentiate to EECs (Genes Dev. 2002).

Row | Compound | stem cells turned into EECs [1] | concentration of highest activity / optimal concentration in promoting Insulin expression [2] | effect of removal [3] | expression of Goblet cell marker (Muc2) and Paneth cell marker (Lyz1) ([4]; 24-well validation, END conditions) | expression of enteroendocrine cell marker ChgA ([4]; multiple conditions (FIG. 6)) | Ngn3 expression [5]
1 | C[C@H](NC(=O)Cc1cc(F)cc(F)c1)C(=O)N[C@H](C(=O)OC(C)(C)C)c1ccccc1 [DAPT, N—[N-(3,5-Difluorophenacetyl)-L-alanyl]-S-phenylglycine t-butyl ester] | 5%-10% | 5 µM | could be removed without much influence | – | – | –
2 | O=C(NOC[C@H](O)CO)c1ccc(F)c(F)c1Nc1ccc(I)cc1F [PD0325901, N-[(2R)-2,3-Dihydroxypropoxyl]-3,4-difluoro-2-[(2-fluoro-4-iodophenyl)amino]-benzamide] | – | – | could be removed without much influence | not similarly increased | specifically increased | further decreased

Source: patent US11021687B2, “Production of differentiated enteroendocrine cells and insulin producing cells” (Massachusetts Institute of Technology, priority 2016, dated 2021)
